Measurements reported in the CheMixHub ionic liquid set.
Several values for one entry are separate records, joined by “and”; a condition that tells them apart may be missing. Identical values can stand only once.

Experiment: xn = mol fraction of the nth substance listed
Settings: 100 kPa; for electrical conductivity: frequency 0.003 MHz

C1COCCO1 + CCCC[n+]1ccn(C)c1.F[B-](F)(F)F
Settings	viscosity [mPa·s]
298.15 K, x2 = 0	1.18

CC1COC(=O)O1 (stereo not drawn) + CCCC[n+]1ccn(C)c1.F[B-](F)(F)F
Settings	electrical conductivity [S/m]	viscosity
296.9 K, x2 = 0.4	0.993	–
297 K, x2 = 0.6	0.747	–
297 K, x2 = 0.8	0.59	–
297.1 K, x2 = 0.2	1.26	–
297.1 K, x2 = 0.9	0.441	–
298.1 K, x2 = 0.2	–	6.8 mPa·s and 6.5 mPa·s
298.1 K, x2 = 0.4	–	14.8 mPa·s and 14.4 mPa·s
298.1 K, x2 = 0.6	–	32.4 mPa·s and 32.5 mPa·s
298.1 K, x2 = 0.8	–	45.9 mPa·s and 46.1 mPa·s
298.1 K, x2 = 0.9	–	55.6 mPa·s and 55.7 mPa·s
298.15 K, x2 = 0.15	–	5.2 mPa·s
298.15 K, x2 = 0.2	–	6.9 mPa·s
299.9 K, x2 = 0.2	1.3	–
299.9 K, x2 = 0.4	1.04	–
299.9 K, x2 = 0.8	0.63	–
299.9 K, x2 = 0.9	0.482	–
300 K, x2 = 0.6	0.794	–
302.5 K, x2 = 0.9	0.522	–
302.6 K, x2 = 0.2	1.32	–
302.6 K, x2 = 0.6	0.84	–
302.6 K, x2 = 0.8	0.675	–
302.7 K, x2 = 0.4	1.08	–
303 K, x2 = 0.2	–	5.6 mPa·s
303 K, x2 = 0.4	–	11.5 mPa·s
303 K, x2 = 0.6	–	22.4 mPa·s
303 K, x2 = 0.8	–	33.1 mPa·s
303 K, x2 = 0.9	–	45.7 mPa·s
305.4 K, x2 = 0.8	0.72	–
305.4 K, x2 = 0.9	0.564	–
305.5 K, x2 = 0.2	1.34	–
305.5 K, x2 = 0.4	1.13	–
305.6 K, x2 = 0.6	0.882	–
308.1 K, x2 = 0.2	–	5.1 mPa·s
308.1 K, x2 = 0.4	–	10.1 mPa·s
308.1 K, x2 = 0.6	–	18.8 mPa·s
308.1 K, x2 = 0.8	–	25.8 mPa·s
308.1 K, x2 = 0.9	–	36.5 mPa·s
308.2 K, x2 = 0.2	1.36	–
308.2 K, x2 = 0.4	1.17	–
308.2 K, x2 = 0.6	0.93	–
308.2 K, x2 = 0.8	0.759	–
308.2 K, x2 = 0.9	0.607	–
310.9 K, x2 = 0.2	1.4	–
311 K, x2 = 0.6	0.968	–
311 K, x2 = 0.8	0.803	–
311 K, x2 = 0.9	0.65	–
311.2 K, x2 = 0.4	1.21	–
313 K, x2 = 0.2	–	4.3 mPa·s
313 K, x2 = 0.4	–	8.6 mPa·s
313 K, x2 = 0.6	–	15.7 mPa·s
313 K, x2 = 0.8	–	21.6 mPa·s
313 K, x2 = 0.9	–	31 mPa·s
313.6 K, x2 = 0.4	1.25	–
313.6 K, x2 = 0.6	1.01	–
313.6 K, x2 = 0.8	0.846	–
313.6 K, x2 = 0.9	0.691	–
313.9 K, x2 = 0.2	1.41	–
316.5 K, x2 = 0.6	1.05	–
316.5 K, x2 = 0.8	0.892	–
316.6 K, x2 = 0.9	0.74	–
316.7 K, x2 = 0.2	1.43	–
316.7 K, x2 = 0.4	1.29	–
318.1 K, x2 = 0.2	–	3.8 mPa·s
318.1 K, x2 = 0.4	–	7.6 mPa·s
318.1 K, x2 = 0.6	–	12.6 mPa·s
318.1 K, x2 = 0.8	–	18.5 mPa·s
318.1 K, x2 = 0.9	–	25.4 mPa·s
319.2 K, x2 = 0.4	1.32	–
319.3 K, x2 = 0.6	1.1	–
319.3 K, x2 = 0.8	0.933	–
319.5 K, x2 = 0.9	0.786	–
319.7 K, x2 = 0.2	1.45	–
322 K, x2 = 0.8	0.979	–
322 K, x2 = 0.9	0.829	–
322.2 K, x2 = 0.2	1.47	–
322.2 K, x2 = 0.4	1.35	–
322.2 K, x2 = 0.6	1.15	–
323 K, x2 = 0.2	–	3 mPa·s
323 K, x2 = 0.4	–	6.5 mPa·s
323 K, x2 = 0.6	–	10.6 mPa·s
323 K, x2 = 0.8	–	16 mPa·s
323 K, x2 = 0.9	–	22.1 mPa·s
324.8 K, x2 = 0.4	1.38	–
324.8 K, x2 = 0.8	1.02	–
324.8 K, x2 = 0.9	0.874	–
325 K, x2 = 0.6	1.18	–
325.1 K, x2 = 0.2	1.49	–
327.4 K, x2 = 0.4	1.41	–
327.6 K, x2 = 0.6	1.22	–
327.6 K, x2 = 0.8	1.06	–
327.6 K, x2 = 0.9	0.921	–
327.8 K, x2 = 0.2	1.51	–
328.1 K, x2 = 0.2	–	2.6 mPa·s
328.1 K, x2 = 0.4	–	5.8 mPa·s
328.1 K, x2 = 0.6	–	9.3 mPa·s
328.1 K, x2 = 0.8	–	14.2 mPa·s
328.1 K, x2 = 0.9	–	19.7 mPa·s
330.4 K, x2 = 0.6	1.25	–
330.6 K, x2 = 0.2	1.53	–
330.6 K, x2 = 0.4	1.44	–
330.6 K, x2 = 0.8	1.11	–
330.6 K, x2 = 0.9	0.971	–
333 K, x2 = 0.2	–	2.4 mPa·s
333 K, x2 = 0.4	–	5.4 mPa·s
333 K, x2 = 0.6	–	8.2 mPa·s
333 K, x2 = 0.8	–	12.4 mPa·s
333 K, x2 = 0.9	–	17.2 mPa·s
333.2 K, x2 = 0.4	1.46	–
333.2 K, x2 = 0.6	1.29	–
333.2 K, x2 = 0.8	1.15	–
333.3 K, x2 = 0.9	1.01	–
333.4 K, x2 = 0.2	1.56	–
335.9 K, x2 = 0.6	1.33	–
335.9 K, x2 = 0.8	1.19	–
335.9 K, x2 = 0.9	1.06	–
336.1 K, x2 = 0.2	1.55	–
336.1 K, x2 = 0.4	1.49	–
338.1 K, x2 = 0.2	–	2.1 mPa·s
338.1 K, x2 = 0.4	–	4.9 mPa·s
338.1 K, x2 = 0.6	–	7.2 mPa·s
338.1 K, x2 = 0.8	–	10.6 mPa·s
338.1 K, x2 = 0.9	–	15.9 mPa·s
338.7 K, x2 = 0.9	1.1	–
338.8 K, x2 = 0.6	1.36	–
338.9 K, x2 = 0.8	1.24	–
339 K, x2 = 0.4	1.52	–
339.1 K, x2 = 0.2	1.58	–
341.5 K, x2 = 0.4	1.55	–
341.6 K, x2 = 0.8	1.27	–
341.6 K, x2 = 0.9	1.16	–
341.8 K, x2 = 0.2	1.59	–
341.8 K, x2 = 0.6	1.39	–
343 K, x2 = 0.2	–	2.1 mPa·s
343 K, x2 = 0.4	–	4.4 mPa·s
343 K, x2 = 0.6	–	6.1 mPa·s
343 K, x2 = 0.8	–	9.5 mPa·s
343 K, x2 = 0.9	–	14.3 mPa·s
344.2 K, x2 = 0.4	1.59	–
344.2 K, x2 = 0.6	1.43	–
344.3 K, x2 = 0.9	1.19	–
344.4 K, x2 = 0.2	1.62	–
344.4 K, x2 = 0.8	1.32	–
347 K, x2 = 0.6	1.47	–
347.1 K, x2 = 0.8	1.36	–
347.1 K, x2 = 0.9	1.25	–
347.2 K, x2 = 0.2	1.64	–
347.2 K, x2 = 0.4	1.6	–
348.1 K, x2 = 0.2	–	2.1 mPa·s
348.1 K, x2 = 0.4	–	3.9 mPa·s
348.1 K, x2 = 0.6	–	5.6 mPa·s
348.1 K, x2 = 0.8	–	8.5 mPa·s
348.1 K, x2 = 0.9	–	13 mPa·s
349.6 K, x2 = 0.2	1.66	–
349.9 K, x2 = 0.9	1.3	–
350 K, x2 = 0.4	1.62	–
350 K, x2 = 0.6	1.5	–
350 K, x2 = 0.8	1.4	–
